Active and inactive are the calls of the source. No cut-off for these calls is given here.
target: Serum amyloid P-component (Homo sapiens) (UniProt P02743); test: Inhibition of serum amyloid P-component (unknown origin) binding to immobilized amyloid beta 1 to 42 fibrils at 500 umol/L in presence of calcium by surface plasma resonance
Sequence (P02743 whole entry): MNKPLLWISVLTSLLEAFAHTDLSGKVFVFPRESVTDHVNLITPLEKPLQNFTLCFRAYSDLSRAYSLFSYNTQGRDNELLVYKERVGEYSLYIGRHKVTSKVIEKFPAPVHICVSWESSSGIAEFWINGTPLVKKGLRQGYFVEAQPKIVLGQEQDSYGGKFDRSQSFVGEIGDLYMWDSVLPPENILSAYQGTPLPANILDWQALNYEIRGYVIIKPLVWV

For `C[C@H](CS)C(=O)N1CCC[C@@H]1C(=O)O`, the inhibition was “Active”.

target: Serum amyloid P-component (Homo sapiens) (UniProt P02743); test: Inhibition of serum amyloid P-component (unknown origin) binding to immobilized amyloid beta 1 to 42 fibrils at 100 umol/L pre-incubated before calcium addition by surface plasma resonance

With `C[C@H](CS)C(=O)N1CCC[C@@H]1C(=O)O` the inhibition was “Active”.

target: Serum amyloid P-component (Homo sapiens) (UniProt P02743); test: Inhibition of calcium dependent [125I]serum amyloid P-component (unknown origin) binding to immobilized Neisseria meningitidis at 2 mM incubated for 2 hrs by fluorescence/electron microscopy relative to control

First: NCCOP(=O)(O)O
Second: O=C(O)[C@H]1CCCN1C(=O)Cc1ccc(CC(=O)N2CCC[C@@H]2C(=O)O)c2ccccc12
The inhibition of the first is lower: 95% for the first, 100% for the second.

target: Serum amyloid P-component (Homo sapiens) (UniProt P02743); test: Inhibition of calcium dependent [125I]serum amyloid P-component (unknown origin) binding to immobilized Neisseria meningitidis at 200 uM incubated for 2 hrs by fluorescence/electron microscopy relative to control

First: NCCOP(=O)(O)O
Second: O=C(O)[C@H]1CCCN1C(=O)Cc1ccc(CC(=O)N2CCC[C@@H]2C(=O)O)c2ccccc12
The inhibition of the first is lower: 41% for the first, 100% for the second.

target: Serum amyloid P-component (Homo sapiens) (UniProt P02743); test: Inhibition of calcium dependent [125I]serum amyloid P-component (unknown origin) binding to immobilized Neisseria meningitidis at 20 uM incubated for 2 hrs by fluorescence/electron microscopy relative to control

Compared with `NCCOP(=O)(O)O`, `C[C@H](CS)C(=O)N1CCC[C@@H]1C(=O)O` is higher in inhibition: 32% for the first, 50% for the second.

`O=C(O)[C@H]1CCCN1C(=O)Cc1ccc(CC(=O)N2CCC[C@@H]2C(=O)O)c2ccccc12` showed an inhibition of 89%.

target: Serum amyloid P-component (Homo sapiens) (UniProt P02743); test: Inhibition of calcium dependent [125I]serum amyloid P-component (unknown origin) binding to immobilized Neisseria meningitidis at 2 uM incubated for 2 hrs by fluorescence/electron microscopy relative to control

Going from `NCCOP(=O)(O)O` to `C[C@H](CS)C(=O)N1CCC[C@@H]1C(=O)O`, the inhibition rises from 18% to 42%.

With `O=C(O)[C@H]1CCCN1C(=O)Cc1ccc(CC(=O)N2CCC[C@@H]2C(=O)O)c2ccccc12` the inhibition was 69%.

target: Serum amyloid P-component (Homo sapiens) (UniProt P02743); test: Inhibition of calcium dependent [125I]serum amyloid P-component (unknown origin) binding to immobilized Neisseria meningitidis at 200 nM incubated for 2 hrs by fluorescence/electron microscopy relative to control

Compared with `NCCOP(=O)(O)O`, `C[C@H](CS)C(=O)N1CCC[C@@H]1C(=O)O` is lower in inhibition: 7% for the first, 3% for the second.

`O=C(O)[C@H]1CCCN1C(=O)Cc1ccc(CC(=O)N2CCC[C@@H]2C(=O)O)c2ccccc12` gave an inhibition of 13%.

target: Serum amyloid P-component (Homo sapiens) (UniProt P02743); test: Inhibition of calcium dependent [125I]serum amyloid P-component (unknown origin) binding to immobilized chicken erythrocyte native long chromatin at 2 mM incubated for 2 hrs by gamma counting relative to control

Compared with `NCCOP(=O)(O)O`, `O=C(O)[C@H]1CCCN1C(=O)Cc1ccc(CC(=O)N2CCC[C@@H]2C(=O)O)c2ccccc12` is higher in inhibition: 94% for the first, 100% for the second.

target: Serum amyloid P-component (Homo sapiens) (UniProt P02743); test: Inhibition of calcium dependent [125I]serum amyloid P-component (unknown origin) binding to immobilized chicken erythrocyte native long chromatin at 200 uM incubated for 2 hrs by gamma counting relative to control

First: NCCOP(=O)(O)O
Second: O=C(O)[C@H]1CCCN1C(=O)Cc1ccc(CC(=O)N2CCC[C@@H]2C(=O)O)c2ccccc12
The inhibition of the first is lower: 59% for the first, 96% for the second.

target: Serum amyloid P-component (Homo sapiens) (UniProt P02743); test: Inhibition of calcium dependent [125I]serum amyloid P-component (unknown origin) binding to immobilized chicken erythrocyte native long chromatin at 20 uM incubated for 2 hrs by gamma counting relative to control

First: NCCOP(=O)(O)O
Second: O=C(O)[C@H]1CCCN1C(=O)Cc1ccc(CC(=O)N2CCC[C@@H]2C(=O)O)c2ccccc12
The inhibition of the first is lower: 36% for the first, 77% for the second.

target: Serum amyloid P-component (Homo sapiens) (UniProt P02743); test: Inhibition of calcium dependent [125I]serum amyloid P-component (unknown origin) binding to immobilized chicken erythrocyte native long chromatin at 2 uM incubated for 2 hrs by gamma counting relative to control

First: NCCOP(=O)(O)O
Second: O=C(O)[C@H]1CCCN1C(=O)Cc1ccc(CC(=O)N2CCC[C@@H]2C(=O)O)c2ccccc12
The inhibition of the first is lower: 9% for the first, 35% for the second.

target: Serum amyloid P-component (Homo sapiens) (UniProt P02743); test: Inhibition of calcium dependent [125I]serum amyloid P-component (unknown origin) binding to immobilized chicken erythrocyte native long chromatin at 200 nM incubated for 2 hrs by gamma counting relative to control

Compared with `NCCOP(=O)(O)O`, `O=C(O)[C@H]1CCCN1C(=O)Cc1ccc(CC(=O)N2CCC[C@@H]2C(=O)O)c2ccccc12` is higher in inhibition: 3% for the first, 15% for the second.

target: Serum amyloid P-component (Homo sapiens) (UniProt P02743); test: Inhibition of calcium dependent [125I]serum amyloid P-component (unknown origin) binding to immobilized influenza virus A/Shanghai/24/90 at 2 mM incubated for 2 hrs by fluorescence/electron microscopy relative to control

Compared with `NCCOP(=O)(O)O`, `O=C(O)[C@H]1CCCN1C(=O)Cc1ccc(CC(=O)N2CCC[C@@H]2C(=O)O)c2ccccc12` is higher in inhibition: 69% for the first, 98% for the second.

target: Serum amyloid P-component (Homo sapiens) (UniProt P02743); test: Inhibition of calcium dependent [125I]serum amyloid P-component (unknown origin) binding to immobilized influenza virus A/Shanghai/24/90 at 200 uM incubated for 2 hrs by fluorescence/electron microscopy relative to control

`NCCOP(=O)(O)O` and `C[C@H](CS)C(=O)N1CCC[C@@H]1C(=O)O` are the same in inhibition: 51% for the first, 51% for the second.

`O=C(O)[C@H]1CCCN1C(=O)Cc1ccc(CC(=O)N2CCC[C@@H]2C(=O)O)c2ccccc12` gave an inhibition of 94%.

target: Serum amyloid P-component (Homo sapiens) (UniProt P02743); test: Inhibition of calcium dependent [125I]serum amyloid P-component (unknown origin) binding to immobilized influenza virus A/Shanghai/24/90 at 20 uM incubated for 2 hrs by fluorescence/electron microscopy relative to control

Going from `NCCOP(=O)(O)O` to `C[C@H](CS)C(=O)N1CCC[C@@H]1C(=O)O`, the inhibition falls from 42% to 40%.

`O=C(O)[C@H]1CCCN1C(=O)Cc1ccc(CC(=O)N2CCC[C@@H]2C(=O)O)c2ccccc12` showed an inhibition of 95%.

target: Serum amyloid P-component (Homo sapiens) (UniProt P02743); test: Inhibition of calcium dependent [125I]serum amyloid P-component (unknown origin) binding to immobilized influenza virus A/Shanghai/24/90 at 2 uM incubated for 2 hrs by fluorescence/electron microscopy relative to control

Compared with `NCCOP(=O)(O)O`, `C[C@H](CS)C(=O)N1CCC[C@@H]1C(=O)O` is higher in inhibition: 8% for the first, 30% for the second.

`O=C(O)[C@H]1CCCN1C(=O)Cc1ccc(CC(=O)N2CCC[C@@H]2C(=O)O)c2ccccc12` gave an inhibition of 64%.

target: Serum amyloid P-component (Homo sapiens) (UniProt P02743); test: Inhibition of calcium dependent [125I]serum amyloid P-component (unknown origin) binding to immobilized influenza virus A/Shanghai/24/90 at 200 nM incubated for 2 hrs by fluorescence/electron microscopy relative to control

Going from `NCCOP(=O)(O)O` to `C[C@H](CS)C(=O)N1CCC[C@@H]1C(=O)O`, the inhibition rises from 1% to 12%.

In the case of `O=C(O)[C@H]1CCCN1C(=O)Cc1ccc(CC(=O)N2CCC[C@@H]2C(=O)O)c2ccccc12`, the inhibition is reported as 4%.

target: Serum amyloid P-component (Homo sapiens) (UniProt P02743); test: Inhibition of serum amyloid P-component (unknown origin) binding to immobilized amyloid beta 1 to 42 fibrils in presence of EDTA followed by re-exposure to SAP and calcium addition and re-exposure to compound at 50 umol/L by surface plasma resonance

`C[C@H](CS)C(=O)N1CCC[C@@H]1C(=O)O` was tested, and the inhibition was “Active”.
